# “And” between values parts separate entries of the source, which are not always exact repeats. Equal values may be shown once.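 1) Cells in 96-well plates. 2) Compound, 48 h, 5 concentrations. 3) Linear interpolation between surrounding doses. 4) Unreached endpoint = highest concentration. GI50 = concentration required for 50% inhibition of growth. TGI is the concentration that stops growth completely.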
# How the values were obtained:
# Experiment in all cases: inhibition of tumour cell growth, NCI panel, 48 h
# [1] = test system: HL-60(TB) leukemia
# [2] = test system: U251 CNS
# [3] = test system: 786-0 renal
# [4] = test system: KM12 colon
# [5] = test system: TK-10 renal
# [6] = test system: A498 renal
# [7] = test system: COLO 205 colon
# [8] = test system: OVCAR-3 ovarian
# [9] = test system: SNB-19 CNS
# [10] = test system: OVCAR-5 ovarian
# [11] = test system: LOX IMVI melanoma
# [12] = test system: SW-620 colon
# [13] = test system: OVCAR-8 ovarian
# [14] = test system: A549 NSCLC
# [15] = test system: UACC-62 melanoma
# [16] = test system: SR leukemia
# [17] = test system: CAKI-1 renal
# [18] = test system: NCI-H23 lung
# [19] = test system: SK-MEL-28 melanoma
# [20] = test system: PC-3 prostate
# [21] = test system: T-47D breast
# [22] = test system: RXF 393 renal
# [23] = test system: SNB-75 CNS
# [24] = test system: OVCAR-4 ovarian
# [25] = test system: HCC-2998 colon
# [26] = test system: MOLT-4 leukemia
# [27] = test system: RPMI-8226 leukemia
# [28] = test system: SN12C renal
# [29] = test system: HCT-15 colon
# [30] = test system: HCT-116 colon
# [31] = test system: MCF7 breast
# [32] = test system: NCI-H522 lung
# [33] = test system: NCI-H460 lung
# [34] = test system: MDA-MB-435
# [35] = test system: SK-MEL-5 melanoma
# [36] = test system: UO-31 renal
# [37] = test system: NCI/ADR-RES ovarian
# [38] = test system: SK-OV-3 ovarian
# [39] = test system: HS 578T breast
# [40] = test system: M14 melanoma
# [41] = test system: NCI-H226 lung
# [42] = test system: MDA-MB-231 breast
# [43] = test system: BT-549 breast
# [44] = test system: UACC-257 melanoma
# [45] = test system: SF-268 CNS
# [46] = test system: MALME-3M melanoma
# [47] = test system: EKVX NSCLC
# [48] = test system: SF-539 CNS
# [49] = test system: MDA-N
# [50] = test system: HT29 colon
# [51] = test system: SK-MEL-2 melanoma
# [52] = test system: DU-145 prostate
# [53] = test system: CCRF-CEM leukemia
# [54] = test system: K-562 leukemia
# [55] = test system: SF-295 CNS
# [56] = test system: HOP-92 NSCLC
# [57] = test system: ACHN renal
# [58] = test system: IGROV1 ovarian
# [59] = test system: HOP-62 NSCLC
structure (smiles),measurement,setting,value
CSc1c2c(C)n[nH]c2nn1-c1ccccc1,TGI,[1],93.6 µM
same,TGI,[2],> 100 µM
same,TGI,[3],> 100 µM
same,TGI,[4],> 100 µM
same,TGI,[5],> 100 µM
same,TGI,[6],> 100 µM
same,TGI,[7],> 100 µM
same,TGI,[8],> 100 µM
same,TGI,[9],> 100 µM
same,TGI,[10],> 100 µM
same,TGI,[11],> 100 µM
same,TGI,[12],> 100 µM
same,TGI,[13],> 100 µM
same,TGI,[14],> 100 µM
same,TGI,[15],> 100 µM
same,TGI,[16],> 100 µM
same,TGI,[17],87.4 µM
same,TGI,[18],> 100 µM
same,TGI,[19],> 100 µM
same,TGI,[20],> 100 µM
same,TGI,[21],> 100 µM
same,TGI,[22],> 100 µM
same,TGI,[23],> 100 µM
same,TGI,[24],> 100 µM
same,TGI,[25],> 100 µM
same,TGI,[26],> 100 µM
same,TGI,[27],> 100 µM
same,TGI,[28],> 100 µM
same,TGI,[29],> 100 µM
same,TGI,[30],> 100 µM
same,TGI,[31],> 100 µM
same,TGI,[32],> 100 µM
same,TGI,[33],> 100 µM
same,TGI,[34],> 100 µM
same,TGI,[35],> 100 µM
same,TGI,[36],> 100 µM
same,TGI,[37],> 100 µM
same,TGI,[38],> 100 µM
same,TGI,[39],> 100 µM
same,TGI,[40],> 100 µM
same,TGI,[41],> 100 µM
same,TGI,[42],> 100 µM
same,TGI,[43],> 100 µM
same,TGI,[44],> 100 µM
same,TGI,[45],> 100 µM
same,TGI,[46],> 100 µM
same,TGI,[47],> 100 µM
same,TGI,[48],> 100 µM
same,TGI,[49],> 100 µM
same,TGI,[50],> 100 µM
same,TGI,[51],> 100 µM
same,TGI,[52],> 100 µM
same,TGI,[53],> 100 µM
same,TGI,[54],> 100 µM
Cn1c(=O)c2c(nc3n2CCC(=O)N3CCCCl)n(C)c1=O,TGI,[1],> 100 µM
same,TGI,[2],> 100 µM
same,TGI,[3],> 100 µM
same,TGI,[4],> 100 µM
same,TGI,[5],> 100 µM
same,TGI,[6],> 100 µM
same,TGI,[7],> 100 µM
same,TGI,[55],> 100 µM
same,TGI,[8],> 100 µM
same,TGI,[9],> 100 µM
same,TGI,[10],> 100 µM
same,TGI,[11],> 100 µM
same,TGI,[12],> 100 µM
same,TGI,[13],> 100 µM
same,TGI,[14],> 100 µM
same,TGI,[15],> 100 µM
same,TGI,[16],> 100 µM
same,TGI,[56],> 100 µM
same,TGI,[18],> 100 µM
same,TGI,[19],> 100 µM
same,TGI,[20],> 100 µM
same,TGI,[21],> 100 µM
same,TGI,[23],> 100 µM
same,TGI,[24],> 100 µM
same,TGI,[25],> 100 µM
same,TGI,[26],> 100 µM
same,TGI,[27],> 100 µM
same,TGI,[28],> 100 µM
same,TGI,[29],> 100 µM
same,TGI,[30],> 100 µM
same,TGI,[33],> 100 µM
same,TGI,[34],> 100 µM
same,TGI,[35],> 100 µM
same,TGI,[36],> 100 µM
same,TGI,[37],> 100 µM
same,TGI,[38],> 100 µM
same,TGI,[39],> 100 µM
same,TGI,[40],> 100 µM
same,TGI,[41],> 100 µM
same,TGI,[42],> 100 µM
same,TGI,[43],> 100 µM
same,TGI,[44],> 100 µM
same,TGI,[57],> 100 µM
same,TGI,[45],> 100 µM
same,TGI,[47],> 100 µM
same,TGI,[58],> 100 µM
same,TGI,[49],> 100 µM
same,TGI,[59],> 100 µM
same,TGI,[50],> 100 µM
same,TGI,[51],> 100 µM
same,TGI,[52],> 100 µM
same,TGI,[53],> 100 µM
same,TGI,[54],> 100 µM
O=C1C=C2C=CC3CC2(O1)C1CCCCN31 (centres undefined),TGI,[1],79.2 µM
same,GI50,[2],20 µM and 27.7 µM and 60.9 µM
same,TGI,[2],62 µM and 88.8 µM and > 100 µM
same,GI50,[3],16.3 µM and 15.5 µM and 45.6 µM
same,TGI,[3],41.3 µM and 49.8 µM and > 100 µM
same,TGI,[4],70.7 µM and 28.5 µM and 57.6 µM
same,GI50,[5],17.3 µM and 13.6 µM and 31 µM
same,TGI,[5],79 µM and 41.4 µM and > 100 µM
same,GI50,[6],10.3 µM and 28.4 µM and 48.9 µM
same,TGI,[6],43.9 µM and 91.5 µM and > 100 µM
same,GI50,[7],21.6 µM and 15.1 µM and 58.7 µM
same,TGI,[7],73.5 µM and 29.3 µM and > 100 µM
same,TGI,[55],> 100 µM and 76.1 µM
same,GI50,[8],18.6 µM and 17.3 µM and 40.6 µM
same,TGI,[8],69.6 µM and 48.1 µM and > 100 µM
same,TGI,[9],> 100 µM and 55.5 µM
same,GI50,[10],34.7 µM and 25.9 µM and > 100 µM
same,TGI,[10],> 100 µM
same,GI50,[11],17.7 µM and 18 µM and 53.3 µM
same,TGI,[11],44.4 µM and 42.8 µM and > 100 µM
same,GI50,[12],16.9 µM and 13.7 µM and 38 µM
same,TGI,[12],42.4 µM and 39 µM and > 100 µM
same,TGI,[13],72.6 µM and 40.2 µM and 93.8 µM
same,GI50,[14],31.8 µM and 22.9 µM and 64.4 µM
same,TGI,[14],> 100 µM and 63.4 µM
same,GI50,[15],15.8 µM and 13.9 µM and 57.1 µM
same,TGI,[15],42.3 µM and 30.1 µM and > 100 µM
same,TGI,[56],65.8 µM and 48.3 µM and 66 µM
same,GI50,[17],17.7 µM and 22.3 µM and 43.3 µM
same,TGI,[17],78.8 µM and 79.5 µM and > 100 µM
same,GI50,[18],19.9 µM and 15 µM and 31.7 µM
same,TGI,[18],56.7 µM and 43.5 µM and > 100 µM
same,GI50,[19],17.3 µM and 13.4 µM and 89.3 µM
same,TGI,[19],39 µM and 36.4 µM and > 100 µM
same,TGI,[20],> 100 µM and 73.4 µM
same,GI50,[21],22.3 µM and 14.1 µM and 53.4 µM
same,TGI,[21],71.6 µM and 36.2 µM and > 100 µM
same,GI50,[23],24.2 µM and 14.6 µM and 31.7 µM
same,TGI,[23],> 100 µM and 62.3 µM and 95.8 µM
same,GI50,[24],25.8 µM and 22.5 µM and 65 µM
same,TGI,[24],> 100 µM and 92.1 µM
same,TGI,[25],40.9 µM and 42.4 µM and 86.4 µM
same,TGI,[26],72.6 µM and 56.1 µM and > 100 µM
same,GI50,[27],7.45 µM and 15.1 µM and 29.3 µM
same,TGI,[27],58.9 µM and 45.7 µM and > 100 µM
same,GI50,[28],11.8 µM and 14.8 µM and 25 µM
same,TGI,[28],31.4 µM and 33.7 µM and 74.4 µM
same,GI50,[29],11.4 µM and 11.8 µM and 31 µM
same,TGI,[29],46.4 µM and 29.4 µM and > 100 µM
same,GI50,[30],14.2 µM and 12.5 µM and 36.5 µM
same,TGI,[30],30.3 µM and 26.6 µM and > 100 µM
same,GI50,[31],15.3 µM and 16.8 µM and 32.6 µM
same,TGI,[31],70.4 µM and 39.5 µM and > 100 µM
same,GI50,[32],10.1 µM and 11.1 µM and 32.8 µM
same,TGI,[32],28.1 µM and 32.4 µM and > 100 µM
same,GI50,[33],22.1 µM and 15.1 µM and 31.7 µM
same,TGI,[33],96.3 µM and 67.1 µM and > 100 µM
same,GI50,[34],10.1 µM and 8.06 µM and 22 µM
same,TGI,[34],41.6 µM and 39.3 µM and 66.3 µM
same,GI50,[35],15.9 µM and 19.9 µM and 34.9 µM
same,TGI,[35],33.5 µM and 54.5 µM and > 100 µM
same,GI50,[36],14.5 µM and 13.8 µM and 38.3 µM
same,TGI,[36],> 100 µM
same,GI50,[37],21.3 µM and 16.8 µM and 35.4 µM
same,TGI,[37],61.2 µM and 43.4 µM and > 100 µM
same,TGI,[38],> 100 µM and 58 µM and 90.6 µM
same,GI50,[39],67.8 µM and 29.3 µM and 63.3 µM
same,TGI,[39],> 100 µM
same,GI50,[40],28.1 µM and 24 µM and 54.4 µM
same,TGI,[40],> 100 µM
same,GI50,[41],19.7 µM and 6 µM and 51.7 µM
same,TGI,[41],> 100 µM and 45.3 µM
same,GI50,[42],19 µM and 21.6 µM and 39.7 µM
same,TGI,[42],> 100 µM and 67.9 µM
same,GI50,[43],13.8 µM and 10.8 µM and 37 µM
same,TGI,[43],51.3 µM and 30.3 µM and > 100 µM
same,GI50,[44],25 µM and 13.8 µM and 86.8 µM
same,TGI,[44],> 100 µM and 66.7 µM
same,GI50,[57],23.9 µM and 15.9 µM and 50.2 µM
same,TGI,[57],> 100 µM and 84.3 µM
same,GI50,[45],25.4 µM and 12.7 µM and 41.2 µM
same,TGI,[45],> 100 µM
same,TGI,[46],44.4 µM
same,GI50,[47],14.1 µM and 11.6 µM and 38.6 µM
same,TGI,[47],57.4 µM and 35.5 µM and > 100 µM
same,TGI,[58],95 µM and 30.8 µM and > 100 µM
same,GI50,[48],12.7 µM and 27 µM and 23.2 µM
same,TGI,[48],35.8 µM and > 100 µM and 75.4 µM
same,GI50,[49],16.8 µM and 18.8 µM and 36 µM
same,TGI,[49],> 100 µM
same,GI50,[50],16.1 µM and 12.9 µM and 34.7 µM
same,TGI,[50],46.2 µM and 27.8 µM and > 100 µM
same,TGI,[51],> 100 µM and 44.5 µM and 94.4 µM
same,TGI,[52],50.1 µM and 36.1 µM and > 100 µM
same,GI50,[53],15.3 µM and 11 µM and 28.4 µM
same,TGI,[53],96.6 µM and 41.3 µM and 83.3 µM
same,TGI,[54],> 100 µM and 41.8 µM

# Reference: PubChem BioAssay (NCI)
